From ChEMBL document CHEMBL1201862, “PubChem BioAssay data set” (2004) come the findings set out here.

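Five compound concentrations were applied to cells in 96-well plates for 48 hours; endpoints were derived by simple linear interpolation of the resulting dose-response curve. GI50 is the concentration that inhibits growth by half.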 Calls of active or inactive are those of the source. Cut-off read from the data, not from the text of the source: active = GI50 up to about 1.1 µM and inactive = higher.

Test systems include UACC-257; OVCAR-3; IGROV-1; CCRF-CEM; NCI-H460; Hs-578T; PC-3; HCC 2998; Malme-3M; RPMI-8226; MDA-MB-231; HCT-116; SK-MEL-2; A549; LOX IMVI; NCI/ADR-RES; T47D; NCI-H23; SF-295; M14.
What all share (experiment): growth of human tumour cells (NCI), 48 h

With `CC(C)C[C@H](NC(=O)[C@H](Cc1cccc2ccccc12)NS(=O)(=O)c1cccc2cccnc12)B(O)O`, the GI50 with UACC-257 is 0.0103 µM (active); in the test with OVCAR-3 it was < 0.0111 µM (active); in the test with IGROV-1, < 0.0208 µM (active); with CCRF-CEM, < 0.01 µM (active); in the test with NCI-H460, 0.0893 µM (active); with Hs-578T it was < 0.0199 µM (active). For the same molecule, the GI50 is < 0.0272 µM (active) with PC-3; 0.00219 µM (active) in the test on HCC 2998; < 0.01 µM (active) in the test on Malme-3M; < 0.01 µM (active) in the test on RPMI-8226; < 0.0149 µM (active) in the test with MDA-MB-231; < 0.0133 µM (active) with HCT-116. Also, the GI50 in the test with SK-MEL-2 was < 0.0158 µM (active); in the test with A549 it was 0.0435 µM (active); in the test with LOX IMVI, < 0.0118 µM (active); in the test on NCI/ADR-RES, 2.32 µM (inactive); in the test with T47D, < 0.01 µM (active); with NCI-H23 it was < 0.0226 µM (active).

In the case of `C#CCn1c(=O)c2ccccc2n(CC#C)c1=O`, the GI50 with UACC-257, with OVCAR-3, in the test with IGROV-1, in the test on CCRF-CEM, in the test on NCI-H460 and in the test on Hs-578T was > 10 µM (inactive) throughout. The GI50 with SF-295, in the test on PC-3, with HCC 2998, in the test with Malme-3M, with M14 and in the test with RPMI-8226 was > 10 µM (inactive) throughout. Moreover, the GI50 with MDA-MB-231, in the test on HCT-116, with SK-MEL-2, in the test on A549, in the test with LOX IMVI and in the test on NCI/ADR-RES was > 10 µM (inactive) in each case. Further, the GI50 with T47D and in the test with NCI-H23 was > 10 µM (inactive) each time.

As to `N#CC1=C(N)N(/N=C/c2ccco2)C(c2ccco2)C1(C#N)C#N` (stereo unspecified), the GI50 in the test with UACC-257 was 16.3 µM (inactive); in the test with OVCAR-3, 18.2 µM (inactive); in the test with IGROV-1 it was 14.6 µM (inactive); with CCRF-CEM, 4.76 µM (inactive); in the test on Hs-578T, 22.2 µM (inactive); in the test on SF-295, 28.4 µM (inactive). The GI50 in the test with PC-3 was 23 µM (inactive); with HCC 2998 it was 19.4 µM (inactive); in the test with Malme-3M it was 18.9 µM (inactive); in the test with M14 it was 20 µM (inactive); in the test with RPMI-8226, 20.8 µM (inactive); with MDA-MB-231, 19.5 µM (inactive). For the same molecule, the GI50 was 12.7 µM (inactive) in the test on HCT-116; 24.1 µM (inactive) in the test with SK-MEL-2; 19.6 µM (inactive) in the test with A549; 14.2 µM (inactive) with LOX IMVI; 25.1 µM (inactive) in the test with NCI/ADR-RES; 12.4 µM (inactive) in the test on T47D. In the test with NCI-H23, the GI50 is 19.6 µM (inactive).

As to `C/C(=N\NC(=S)N1CCN(c2ccccn2)CC1)c1nccs1`, the GI50 was 0.214 µM (active) in the test on UACC-257; 0.228 µM (active) in the test with IGROV-1; 0.01 µM (active) with CCRF-CEM; 0.104 µM (active) with NCI-H460; 2.8 µM (inactive) with Hs-578T; 0.822 µM (active) in the test on SF-295. The GI50 in the test on PC-3 was 0.0548 µM (active); in the test with HCC 2998, 0.675 µM (active); in the test with Malme-3M, 3.82 µM (inactive); in the test with M14 it was 0.16 µM (active); with RPMI-8226 it was 0.01 µM (active); in the test on MDA-MB-231, 0.022 µM (active). Besides, the GI50 with HCT-116 was < 0.0441 µM (active); in the test with SK-MEL-2 it was 1.83 µM (inactive); with A549, 0.908 µM (active); in the test on LOX IMVI, 0.405 µM (active); in the test on NCI/ADR-RES, 0.0339 µM (active); in the test on T47D, 0.0391 µM (active). Besides, the GI50 in the test on NCI-H23 is 0.438 µM (active).

For the molecule `CN(/N=C/c1ccc(Cl)cc1)C1=NCCCCN1`, the GI50 is > 100 µM (inactive) in the test with UACC-257; > 100 µM (inactive) in the test on OVCAR-3; > 100 µM (inactive) with IGROV-1; 38.1 µM (inactive) in the test with CCRF-CEM; > 100 µM (inactive) in the test with NCI-H460; > 100 µM (inactive) in the test on Hs-578T. The GI50 in the test on SF-295 is > 100 µM (inactive); in the test on PC-3, 32.9 µM (inactive); with HCC 2998, 44.6 µM (inactive); in the test on Malme-3M, 62.8 µM (inactive); with M14, 24.6 µM (inactive); in the test on RPMI-8226, > 100 µM (inactive). Moreover, the GI50 was 35 µM (inactive) with MDA-MB-231; 48.1 µM (inactive) with HCT-116; > 10 µM (inactive) with SK-MEL-2; 93.8 µM (inactive) with A549; 22.1 µM (inactive) in the test with LOX IMVI; > 100 µM (inactive) in the test on NCI/ADR-RES. For the same molecule, the GI50 in the test with T47D and with NCI-H23 was > 100 µM (inactive) in each case.

As to `NCC(O)CNC(=O)c1ccc(-c2ccc(-c3ccc(C(=O)NCC(O)CN)cc3)o2)cc1` (stereo unspecified), the GI50 in the test on UACC-257 is > 100 µM (inactive); with OVCAR-3, 21.4 µM (inactive); with IGROV-1, 30.8 µM (inactive); in the test with CCRF-CEM, > 100 µM (inactive); in the test on NCI-H460, 59 µM (inactive); in the test on Hs-578T, 25.3 µM (inactive). Also, the GI50 is 23.5 µM (inactive) in the test with SF-295; 21.2 µM (inactive) in the test with PC-3; 25.1 µM (inactive) in the test on HCC 2998; 21.7 µM (inactive) with Malme-3M; > 100 µM (inactive) in the test on M14; > 100 µM (inactive) in the test on RPMI-8226. In addition, the GI50 in the test with MDA-MB-231 is 24.5 µM (inactive); in the test on HCT-116 it was 22.4 µM (inactive); in the test on SK-MEL-2, 53.7 µM (inactive); in the test on A549, 37.4 µM (inactive); in the test on LOX IMVI, 45 µM (inactive); in the test with NCI/ADR-RES, > 100 µM (inactive). Moreover, the GI50 in the test on T47D was 34.6 µM (inactive); in the test with NCI-H23 it was 36.1 µM (inactive).

In the case of `CC(C)C(Br)CC/C(CBr)=C(\Cl)CCl` (stereo unspecified), the GI50 in the test on UACC-257 is 3.03 µM (inactive); with OVCAR-3, 3.3 µM (inactive); with IGROV-1, 1.89 µM (inactive); in the test with CCRF-CEM, 0.135 µM (active); in the test on NCI-H460 it was 12.5 µM (inactive); in the test on Hs-578T, 3.11 µM (inactive). The GI50 in the test with SF-295 is 15.1 µM (inactive); in the test on PC-3, 6.08 µM (inactive); in the test with HCC 2998 it was 13.4 µM (inactive); with Malme-3M, 5.37 µM (inactive); in the test with M14 it was 1.79 µM (inactive); with RPMI-8226 it was 2 µM (inactive). Besides, the GI50 was 2.64 µM (inactive) in the test on MDA-MB-231; 2 µM (inactive) in the test with HCT-116; 2.19 µM (inactive) in the test on SK-MEL-2; 16.3 µM (inactive) in the test on A549; 0.355 µM (active) in the test on LOX IMVI; 3.33 µM (inactive) with NCI/ADR-RES. In addition, the GI50 is 1.63 µM (inactive) with T47D and 3.19 µM (inactive) with NCI-H23.

In the case of `C[C@H](CCC1=NCCN1)[C@H]1CC[C@H]2[C@@H]3CC[C@@H]4C[C@H](O)CC[C@]4(C)[C@H]3C[C@H](O)[C@]12C`, the GI50 with UACC-257 was 15.4 µM (inactive); in the test on OVCAR-3 it was 12.1 µM (inactive); with IGROV-1, 7.38 µM (inactive); in the test on CCRF-CEM, 10.7 µM (inactive); with NCI-H460 it was 13.9 µM (inactive); with Hs-578T, 11.4 µM (inactive). The GI50 in the test with SF-295 is 15.6 µM (inactive); in the test on PC-3 it was 4.57 µM (inactive); in the test with HCC 2998, 13.5 µM (inactive); with Malme-3M, 13.7 µM (inactive); in the test on M14, 17.4 µM (inactive); in the test on RPMI-8226, 11.3 µM (inactive). Besides, the GI50 in the test on MDA-MB-231 is 14.9 µM (inactive); with HCT-116, 20.5 µM (inactive); with SK-MEL-2, 13.8 µM (inactive); in the test with LOX IMVI, 11.2 µM (inactive); with NCI/ADR-RES, > 100 µM (inactive); in the test with T47D it was 13.6 µM (inactive). The GI50 in the test with NCI-H23 is 14.1 µM (inactive).

Turning to `CCOC(=O)c1nc2ccc(C(F)(F)F)cc2nc1Nc1cc(OC)c(OC)c(OC)c1`, the GI50 in the test with UACC-257, in the test on OVCAR-3, in the test with IGROV-1, with CCRF-CEM, in the test on NCI-H460 and in the test with Hs-578T was > 100 µM (inactive) throughout. Also, the GI50 with SF-295, in the test on PC-3, with HCC 2998, in the test on Malme-3M, with M14 and in the test on RPMI-8226 was > 100 µM (inactive) each time. In addition, the GI50 in the test on MDA-MB-231, in the test with HCT-116, with A549, with LOX IMVI, in the test with NCI/ADR-RES and in the test on T47D was > 100 µM (inactive) each time. In addition, in the test with NCI-H23, the GI50 was > 100 µM (inactive).

With `CC(=O)N[C@H]1CCCC[C@@H]1OC(C)=O`, the GI50 in the test with UACC-257, in the test with OVCAR-3, in the test on IGROV-1, in the test on NCI-H460, with Hs-578T and in the test with SF-295 was > 100 µM (inactive) throughout. For the same molecule, the GI50 with PC-3, in the test with HCC 2998, with Malme-3M, in the test on RPMI-8226, in the test with MDA-MB-231 and in the test with HCT-116 was > 100 µM (inactive) in each case. In addition, the GI50 in the test on SK-MEL-2, in the test on LOX IMVI, in the test on NCI/ADR-RES, with T47D and with NCI-H23 was > 100 µM (inactive) each time.
